These results are taken from US6177475A, “Methods of using integrin modulators for treatment of inflammation” (priority 1997, dated 2001).

In one data set the test system is sperm cells. The data set is classed as cell-based, human. To be noted: 200 micromoles per l. As to the method:
Human sperm was from a donor with known fertility (No. 113). The sample (freshly taken) was allowed to liquefy, was diluted 3:1 with BWW/HSA, was centrifuged at 325×g for 5 minutes, and was washed once with the same medium. A small portion of the original sample was analyzed (computer-assisted sperm analysis) using the Cell-Soft package. The pellet of washed sperm cells was subjected to the swim-up procedure (1 ml of the medium was added for this purpose). The swim-up was collected (about 0.5 ml), the cells were counted (Makler chamber), and their motility determined (%). The volume of the sample was adjusted with the medium to give 10^7 cells per ml, and the samples were incubated overnight (18 hours) at 37° C. for capacitation. Thereafter, motility and cell density were determined once again, and the sample was divided into three equal portions, each to be subjected to appropriate treatment.
Equivalent volumes of ethanol and BWW/HSA were added to the two control portions of each cell type (vehicle control and untreated cells, respectively).

For data set [1], the system named is SupT1LAV-BRU cells / SupT1 cells (HIV-1LAV-BRU). The data set is described as follows: HIV-induced syncytium formation, SupT1LAV-BRU donor with SupT1 recipient. The data set is classed as cell-based. Conditions: Human immunodeficiency virus 1, SUP-T1, 16 h, read-out: IC50 of Ajoene, syncytium formation. As to the method:
Chronically infected and uninfected cell lines (HIV donors and targets, respectively) were maintained as suspension cultures in RPNI-1640 medium supplemented with 10% (v/v) heat-inactivated fetal calf serum, 50 micrograms/ml gentamycin and 2 mM L-glutamine. HIV donors used were (1) a cloned population of H9 cells harboring the genome of HIV-1RF (H9RF cells); and (2) a cloned population of SupT1 cells harboring the genome of HIV-1LAV-BRU (SupT1LAV-BRU cells). To assess the effect of Ajoene on syncytium formation, the donors were mixed with their respective recipients, H9 and SupT1, at a ratio of 1:2 in 96-well flat-bottomed plates (3×10^5 cells per well). Log 10 dilutions of Ajoene were then introduced into the wells, and the cells were cocultured for 16 h. Control wells received the vehicle of Ajoene. By the end of the incubation period syncytia were counted, and the values of IC50 for Ajoene were calculated by plotting relative amounts of syncytia (percent of the syncytia formed in the absence of the compound) against Ajoene concentration.

A further data set relates to MT-4 cells. The data set is classed as cell-based.
Data set [2] concerns MOLT-4 cells and syncytiotrophoblasts. The data set is classed as cell-based, human. The method, then:
MOLT-4 clone 8 cells were labeled with calcein-AM, pretreated with different concentrations of Ajoene (0-200 micromoles per liter) and incubated with cultured term syncytiotrophoblast cells at 37° C. for one hour in the presence of Ajoene. Adhesion was measured directly as fluorescence units after background correction. Controls included measuring adhesion in the presence of the appropriate carrier solvent.
In order to assess the ability of Ajoene to inhibit lymphocyte-mediated HIV infection of syncytiotrophoblasts, HIV-1LBi -infected MOLT-4 cells were added to adherent cultures of uninfected syncytiotrophoblasts in the presence and absence of Ajoene. Various additional control conditions were also established. First, some wells received filtered (0.45 micrometer) supernatant of cell-free HIV from infected cell cultures. Yet other negative controls included syncytiotrophoblasts cultured alone and syncytiotrophoblasts cultured with uninfected MOLT-4 cells. After 24 hours, the cocultures were washed to removed unbound lymphocytes, fixed, permeabilized, stained for viral core antigens (p24 and p55), and viewed under a fluorescence microscope.

Data set [3] relates to MT-2 cells / K562/VCAM-1 cells (HTLV-I). Briefly: Syncytium formation of HTLV-I-infected MT-2 cells with K562/VCAM-1 cells. To be noted: Primate T-lymphotropic virus 1, MT2, 4 h. The data set is classed as cell-based. The source says:
MT-2 cells harbor the complete genome of human T cell lymphotropic virus type 1 (HTLV-I), and they transmit the virus to susceptible uninfected cells in cocultures. The transmission manifests itself as fusion of MT-2 cells with the uninfected cells, followed by syncytium formation. K562 cells transfected with VCAM-1, a ligand of the integrin VIA-4, were used as a fusion partner for MT-2 cells. MT-2 and K562/VCAM-1 cells were washed and resuspended in complete RPMI medium at a density of 2×10^6 /ml. MT2 cells were seeded into flat-bottom 96-well microtiter plates (100 microliters per well). Serial dilutions of Ajoene or of the disintegrin kistrin (final concentration) were introduced into the wells, and the plate was incubated for 30 min prior to addition of 100 microliters of K562/VCAM-1 cells. The plates were then incubated for 4 h before scoring syncytium formation.

Data set [4] deals with 111In-labeled neutrophils. Briefly: Neutrophil recruitment to inflamed skin. It is filed as in vivo, rat. Conditions: 50 mg/kg i.v.; for Accumulation of 111In-labeled Neutrophils (mean ± SEM): 2 h. From the text: Chemotactic factors (e.g., C5adesArg) and cytokines, such as tumor necrosis factor α (TNF) or interferon gamma (IFN), induce rapid cutaneous inflammatory reactions, when injected intradermally. These inflammatory reactions are characterized by integrin-mediated migration of ^51 Cr-labeled monocytes and ^111 In-labeled neutrophils. The mechanisms of leukocyte recruitment to the inflammatory loci differ, however, in that chemotactic factors act primarily on leukocytes (by upregulating integrins), whereas TNF and IFN activate endothelial cells (which results, inter alia, in rapid expression of integrin ligands, such as ICAM-1 and VCAM-1).
Agents used for the induction of the inflammation included rat IFN, recombinant mouse TNF (Genentech, South San Francisco, Calif.), and Zymozan-activated serum (ZAS). ZAS, a source of C5adesArg, was generated by activating complement in normal rat serum with 5 mg/ml of Zymozan A (Sigma Chemical Company, St. Louis, Mo.) at 37° C. for 60 min, after which the zymozan was removed.
Rat monocytes and neutrophils were isolated and labeled as described in Example 6, supra. Male Lewis rats were administered intravenously with 50 mg/kg Ajoene (treatment group) or its vehicle (control), followed within 2-3 min by infusion of the labeled cells. Immediately afterwards, the skin on the back of all animals was shaved and the inflammatory stimuli and the diluent control were injected intradermally at several sites of the skin of each animal. Two hours later, 1 ml of blood was taken from each rat, and the animals were sacrificed. The dorsal skin, including the area of dermal inflammatory reactions, was removed and frozen, and the injected skin sites were punched out with a 12-mm punch and counted in a gamma spectrometer (model 1280, LXB Instruments).

The term IC50 denotes the concentration that gives 50% inhibition. With `C=CCSSC=CC[S+]([O-])CC=C` (centres unmarked) [Ajoene, 4,5,9-trithiadodeca-1,6,11-triene-9-oxide], the “toxicity or impaired cellular vitality (motility of sperm cells)” value in the data set on sperm cells is listed as “not associated with toxicity or impaired cellular vitality”. The IC50 in data set [1] is approximately 5 nM; in data set [3] (read-out: IC50 for syncytium formation) it was approximately 600 nM. Further, the “toxic effects on the cells” value in the data set on MT-4 cells is “without any toxic effects on the cells”. The “toxic effects to the cells” value in data set [2] (HIV infection assay (lymphocyte-mediated), 200 micromoles per liter) is on record as “without toxic effects to the cells”. Further, in data set [2] (adhesion assay, up to 200 micromoles per liter), the “toxic effects on cells” value is on record as “Without any toxic effects on cells”. Besides, the “toxic effects in cell-free HIV infection” value in data set [2] (cell-free HIV, 200 micromoles per liter and lower concentrations tested) is “without toxic effects”. In addition, the IC100 in data set [3] (read-out: IC100 for syncytium formation) amounted to 4.3 µM. Also, the “Accumulation of 111In-labeled Neutrophils (mean ± SEM)” value is reported as 1,289 cpm per inflammatory locus in data set [4] (10 ng TNF, P < 0.006); 5,558 cpm per inflammatory locus in data set [4] (25% ZAS, P < 0.001); 7,926 cpm per inflammatory locus in data set [4] (50% ZAS, P < 0.001); 160 cpm per inflammatory locus in data set [4] (300 U IFN, P < 0.060); 53 cpm per inflammatory locus in data set [4] (diluent control stimulus, N.S.). Besides, the “inhibition of neutrophil migration to loci of acute cutaneous inflammation” value in data set [4] is listed as 30-40%.
